The subject of test [1] is mouse cytokines, chemokines, and growth factors. As to the kind of experiment: LPS in vivo model: multiplex assay of brain cytokines and chemokines (Luminex xMAP). The settings on record: 20 mg·kg^-1 i.p. The protocol: • Figure 1. Compound 1 reduces the inflammatory response against LPS in vitro. (A) Nitric oxide (NO) production in BV2 cells detected by DAF 24 h after LPS exposure and normalized by cell viability measured by MTT (n = 9). (B) qRT-PCR of TNFα (n = 9) in BV2 cells after 24 h LPS exposure. Sulforaphane (Sfn) was used as a positive control. […] Compound 1 decreases the inflammatory process 4 and 24 hours after LPS administration in vivo. Compound 1 (20 mg·kg^-1) daily was injected i.p. four days before the i.p. LPS (0.5 mg·kg^-1) administration. […] Compound 1 ameliorates the resolution of the inflammatory process triggered by LPS. Multiplex assay of cytokines 4 h (A) and 24 h (B) after the proinflammatory stimuli (n = 5). […] Compound 1 reverts brain microgliosis triggered by LPS. Representative images of brain microglia 4 h and 24 h after the proinflammatory stimuli (A). Mean intensity of IBA-1 per cell 4 h (n = 10) and 24 h (n = 7, except n = 6 LPS + Compound 1) after LPS injection (B). […] Sub-chronical Compound 1 administration improves behavioural parameters in LPS treated mice. Compound 1 (20 mg·kg^-1) was injected once a day via i.p. four days before the i.p. LPS (0.5 mg·kg^-1) administration, thereafter behavioural tests were conducted. (A) Mice weight change (T0 and T24: saline n = 17, LPS n = 17, LPS + Compound 1 n = 19, T4 and T8 saline n = 8, LPS n = 7, LPS + Compound 1 n = 8). (B) Locomotion activity measured by line crossings of an imaginary grid. (C) Scheme of NOR test. (D) Discrimination index (DI) of the mice studied: saline (n = 16), LPS (n = 9) and LPS + Compound 1 (n = 13). […] Compound 1 reduces hyperphosphorylated tau species and tau seeding in vitro. Compound 1 reduces hyperphosphorylated tau levels (AT8) in primary neuronal cultures of mice after 8 days of AVV-hTauP301L treatment. Dimethyl fumarate was used as a positive control (DMF). (A) Representative images, AT8 is shown in green and Map2, marker of neurons, is shown in white. […] Compound 1 reduced tau seeding in HEK-293 tau FRET biosensor measured by flow cytometer (C). Tg4510 mouse brain homogenate was used as aggregant stimuli. […] Data represent mean ± SEM. • Figure 7. Compound 1 reduces hyperphosphorylated tau species in adult mice with hTauP301L tauopathy after 35 days oral administration (50 mg/kg/day). (A). Representative images of hyperphosphorylated tau intensity measured by AT8 and AT180 antibodies in three different regions of the hippocampus (GD, CA3 and CA1) (n = 11-12). (B) Quantification AT8 intensity, normalized to CA3 intensity of Sham animals. (C) Quantification of AT180 intensity, normalized to CA3 intensity of Sham animals (n = 9-12). […] Compound 1 reduces insoluble forms of hyperphosphorylated tau species in adult mice with hTauP301L tauopathy after 35 days oral administration (50 mg/kg/day). (A). Representative images of WB against AT8 and (B) AT180 antibodies of sarkosyl solule and insoluble protein species. Quantification of sarkosyl soluble (n = 10) (C) and insoluble species (D) using AT8 antibody (n = 10). Quantification of sarkosyl soluble (n = 10) (E) and insoluble species (F) using AT180 antibody (n = 10). […] Compound 1 prevents cognitive decline in spatial memory behavioural paradigms in adult mice with hTauP301L tauopathy after 35 days oral administration (20 mg/kg or 50 mg/kg/day). (A) Representation of T-maze alternation test and (B) Object Location test (OLT). (C) Average percentage of success in seven independent attempts (n = 14-19). (D) Discrimination index in the OLT assay (AAV-eGFP, n = 15; AAV-hTau, n = 10; AAV-hTau + Compound 1 at 20 mg/kg, n = 5; AAV-hTau + Compound 1 at 50 mg/kg, n = 8). […] Compound 1 reduces hyperphosphorylated tau species and improves cognitive behaviour in aged (16-18 months old) mice with hTauP301L tauopathy after 35 days oral administration (50 mg/kg/day). (A). Representative images of hyperphosphorylated tau intensity measured by AT8 and AT180 antibodies in three different regions of the hippocampus (GD, CA3 and CA1) (n = 12). […]

The subject of test [2] is HEK-293 FRET biosensor containing tau repeating domains. In words: Tau seeding assay in HEK-293 tau FRET biosensor cells. The format is cell-based. Particulars: Tg4510 mouse brain homogenate as aggregant stimulus; increasing concentrations. The procedure:
(§1) • Figure 1. Compound 1 reduces the inflammatory response against LPS in vitro. (A) Nitric oxide (NO) production in BV2 cells detected by DAF 24 h after LPS exposure and normalized by cell viability measured by MTT (n = 9). (B) qRT-PCR of TNFα (n = 9) in BV2 cells after 24 h LPS exposure. Sulforaphane (Sfn) was used as a positive control. […] Compound 1 decreases the inflammatory process 4 and 24 hours after LPS administration in vivo. Compound 1 (20 mg·kg^-1) daily was injected i.p. four days before the i.p. LPS (0.5 mg·kg^-1) administration. […] Compound 1 ameliorates the resolution of the inflammatory process triggered by LPS. […] (B) Locomotion activity measured by line crossings of an imaginary grid. […] Compound 1 reduced tau seeding in HEK-293 tau FRET biosensor measured by flow cytometer (C). […] Representative images of hyperphosphorylated tau intensity measured by AT8 and AT180 antibodies in three different regions of the hippocampus (GD, CA3 and CA1) (n = 11-12). (B) Quantification AT8 intensity, normalized to CA3 intensity of Sham animals. (C) Quantification of AT180 intensity, normalized to CA3 intensity of Sham animals (n = 9-12). […] Quantification of sarkosyl soluble (n = 10) (C) and insoluble species (D) using AT8 antibody (n = 10). Quantification of sarkosyl soluble (n = 10) (E) and insoluble species (F) using AT180 antibody (n = 10). […]

The subject of another test is BV2 cells. As to the kind of experiment: Nitric oxide detection with DAF in LPS-exposed BV2 cells. The class given is cell-based, mouse. The settings on record: 24 h LPS. The procedure: as §1

Regarding `COc1ccc2c(c1)CC(c1c[nH]c3ccc(OC)cc13)N2` (centres unmarked) [Compound 1, 5-Methoxy-3-(5-methoxyindolin-2-yl)-1H-indole], in test [1] (4 and 24 h after LPS), the IP10 result was “decreased significantly”, the KC result is given as “decreased significantly”, the MIP2 entry is “decreased significantly” and the RANTES entry is “decreased significantly”. For the same molecule, in test [1] (4 h after LPS), the IL-6 in brain entry is reported as “marked reduction”, the IL-7 in brain result was “marked reduction” and the MCP-1 entry was “decreased significantly”. Moreover, the “Additional cytokines (Figure 3)” value in test [1] (4 h and 24 h after LPS, most of them) is “decreased with compound treatment”. In test [1] (24 h after LPS), the IL-6 in brain result is reported as “restored to basal conditions” and the IL-7 in brain result is “restored to basal conditions”. For the same molecule, the “granulocyte-colony stimulating factor (G-CSF) brain levels” value in test [1] (after LPS) is “significantly reduced”. In addition, in test [2], the “tau seeding (integrated FRET density)” value was “reduce tau seeding ability following a concentration dependent effect”. Further, the NO production result in the test with BV2 cells (10 µM, BV2 cells) is reported as “reduced to basal levels”. The “nitric oxide (NO) in BV2 cells exposed to LPS” value in the test with BV2 cells (over the concentrations tested) is on record as “concentration-dependent reduction”.
